The IC50 is the point on the concentration scale where inhibition reaches its midpoint.

The source of these data is US11578087B2, “Oxaborole esters and uses thereof” (priority 2016, dated 2023).

The test system of assay [1] is T. cruzi amastigote (Td Tomato-modified) in Vero cells. In words: In vitro IC50 measurement of T. cruzi amastigote killing using Td Tomato-modified T. cruzi. It counts as cell-based. The following applies: Trypanosoma cruzi, 72 h, fluorescence, read-out: IC50: I Org. amastigote Growth T. cruzi 3 d. Summed up:
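Vero cells infected with Td Tomato-expressing T. cruzi, treated with compound at 5 uM to 5 nM final, incubated 72 h at 37 °C. Fluorescence (Ex 544/Em 612 nm) read at Day 0 and Day 3, Day 0 subtracted; IC50 and IC90 by nonlinear regression.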

Assay [2] has as its system IL3000 T. congolense (drug sensitive) strain. In words: In vitro Alamar Blue 72 h drug sensitivity assay for T. congolense. The settings on record: Trypanosoma congolense, 72 h, bloodstream form, 69 h + 3 h Resazurin, 34° C., read-out: IC50: I Org. Growth T. congolense 3 d. The class given is cell-based, Trypanosoma congolense. Summed up: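 Bloodstream-form trypanosomes in HMI medium with 20% bovine serum were exposed to compounds for 69 h at 34° C, 5% CO2, then resazurin for another 3 h. Fluorescence read at ex 536/em 588 nm; IC50 from 11-point sigmoidal dose-response curves, at least three independent runs.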
A general note: Resazurin is reduced to fluorescent resorufin, in cell work by metabolically active cells.

Turning to `Cc1c(C(=O)N[C@H](C(=O)OC2CCN(C)CC2)C(C)C)ccc2c1B(O)OC2` [Example 6-142, 1-Methylpiperidin-4-yl (1-hydroxy-7-methyl-1,3-dihydrobenzo[c][1,2]oxaborole-6-carbonyl)-L-valinate], the results for the IC50 in assay [1] and in assay [2] were 21 to 999 nM and less than 0.5 nM, respectively.

With `CNCc1cccc(COC(=O)[C@@H](NC(=O)c2ccc3c(c2C)B(O)OC3)C(C)C)c1` [Example 6-122, 3-((Methylamino)methyl)benzyl (1-hydroxy-7-methyl-1,3-dihydrobenzo[c][1,2]oxaborole-6-carbonyl)-L-valinate], the IC50 in assay [1] is not below 1000 nM; in assay [2], 10 to 5000 nM.

For `Cc1c(C(=O)N[C@H](C(=O)OCc2cccc(S(C)(=O)=O)c2)C(C)C)ccc2c1B(O)OC2` [Example 6-080, 3-(Methylsulfonyl)benzyl (1-hydroxy-7-methyl-1,3-dihydrobenzo[c][1,2]oxaborole-6-carbonyl)-L-valinate], the IC50 was in the range of 21 to 999 nM in assay [1] and 0.51 to 9.99 nM in assay [2].

As to `CC(C)[C@H](NC(=O)c1ccc2c(c1C1CC1)B(O)OC2)C(=O)OCc1ccccc1` [Example 6-058, Benzyl (7-cyclopropyl-1-hydroxy-1,3-dihydrobenzo[c][1,2]oxaborole-6-carbonyl)-L-valinate], the IC50 was not below 1000 nM in assay [1] and less than 0.5 nM in assay [2].

For `Cc1c(C(=O)N[C@H](C(=O)OCc2ccc(C(F)(F)F)cc2)C(C)C)ccc2c1B(O)OC2` [Example 6-041, 4-Trifluoromethylbenzyl (1-hydroxy-7-methyl-1,3-dihydrobenzo[c][1,2]oxaborole-6-carbonyl)-L-valinate], the IC50 is not above 20 nM in assay [1] and less than 0.5 nM in assay [2].

For the molecule `Cc1c(C(=O)N[C@H](C(=O)OC(C(F)(F)F)C(F)(F)F)C(C)C)ccc2c1B(O)OC2` [Example 6-156, 1,1,1,3,3,3-Hexafluoropropan-2-yl (1-hydroxy-7-methyl-1,3-dihydrobenzo[c][1,2]oxaborole-6-carbonyl)-L-valinate], the 50% inhibitory concentration (IC50) is not below 1000 nM in assay [1] and 10 to 5000 nM in assay [2].

Regarding `Cc1c(C(=O)N[C@H](C(=O)OCC2CCCCC2)C(C)C)ccc2c1B(O)OC2` [Example 6-119, Cyclohexylmethyl (1-hydroxy-7-methyl-1,3-dihydrobenzo[c][1,2]oxaborole-6-carbonyl)-L-valinate], the results for the 50% inhibitory concentration (IC50) in assay [1] and in assay [2] were not above 20 nM and less than 0.5 nM, respectively.

Consider `Cc1c(C(=O)N[C@H](C(=O)OCc2nccs2)C(C)C)ccc2c1B(O)OC2` [Example 6-124, Thiazol-2-ylmethyl (1-hydroxy-7-methyl-1,3-dihydrobenzo[c][1,2]oxaborole-6-carbonyl)-L-valinate], for which the results for the IC50 in assay [1] and in assay [2] were 21 to 999 nM and less than 0.5 nM, respectively.

For the molecule `Cc1c(C(=O)NC2(C(=O)OCC3CCCC3)COC2)ccc2c1B(O)OC2` [Example 6-224, Cyclopentylmethyl 3-(1-hydroxy-7-methyl-1,3-dihydrobenzo[c][1,2]oxaborole-6-carboxamido)oxetane-3-carboxylate], the IC50 was not above 20 nM in assay [1] and 0.51 to 9.99 nM in assay [2].

For the molecule `Cc1c(C(=O)N[C@H](C(=O)OCCN2CC(C)OC(C)C2)C(C)C)ccc2c1B(O)OC2` (stereo partly drawn) [Example 6-206, 2-(2,6-dimethylmorpholino)ethyl (1-hydroxy-7-methyl-1,3-dihydrobenzo[c][1,2]oxaborole-6-carbonyl)-L-valinate], the results for the IC50 in assay [1] and in assay [2] were 21 to 999 nM and less than 0.5 nM, respectively.

Consider `Cc1c(C(=O)N[C@H](C(=O)OCc2ccc(F)cc2)C2CC2)ccc2c1B(O)OC2` [Example 6-050, 4-Fluorobenzyl (S)-2-cyclopropyl-2-(1-hydroxy-7-methyl-1,3-dihydrobenzo[c][1,2]oxaborole-6-carboxamido)acetate], for which the figures for the IC50 in assay [1] and in assay [2] were 21 to 999 nM and less than 0.5 nM, respectively.

For the molecule `NC(=O)C[C@H](NC(=O)c1ccc2c(c1)B(O)OC2)C(=O)OCc1ccccc1` [Example 6-010, Benzyl (1-hydroxy-1,3-dihydrobenzo[c][1,2]oxaborole-6-carbonyl)-L-asparaginate], the results for the IC50 in assay [1] and in assay [2] were not below 1000 nM and 10 to 5000 nM, respectively.

Consider `Cc1c(C(=O)N[C@H](C(=O)OCc2ccc(C(=O)NCCN(C)C)cc2)C(C)C)ccc2c1B(O)OC2` [Example 6-103, 4-((2-(Dimethylamino)ethyl)carbamoyl)benzyl (1-hydroxy-7-methyl-1,3-dihydrobenzo[c][1,2]oxaborole-6-carbonyl)-L-valinate], for which the half-maximal inhibitory concentration (IC50) in assay [1] is not below 1000 nM; in assay [2], 10 to 5000 nM.

`Cc1c(C(=O)N[C@H](C(=O)OCc2ccc(F)cc2)C2CCC2)ccc2c1B(O)OC2` [Example 6-059, 4-Fluorobenzyl (S)-2-cyclobutyl-2-(1-hydroxy-7-methyl-1,3-dihydrobenzo[c][1,2]oxaborole-6-carboxamido)acetate]: the IC50 in assay [1] fell in the range of 21 to 999 nM; in assay [2], 0.51 to 9.99 nM.

Regarding `Cc1c(C(=O)N[C@H](C(=O)OCc2cccc(CN3CCOCC3)c2)C(C)C)ccc2c1B(O)OC2` [Example 6-083, 3-(Morpholinomethyl)benzyl (1-hydroxy-7-methyl-1,3-dihydrobenzo[c][1,2]oxaborole-6-carbonyl)-L-valinate], the IC50 in assay [1] is not above 20 nM; in assay [2] it was less than 0.5 nM.

Regarding `Cc1c(C(=O)N[C@H](C(=O)OCC(F)(F)F)C(C)C)ccc2c1B(O)OC2` [Example 6-151, 2,2,2-Trifluoroethyl (1-hydroxy-7-methyl-1,3-dihydrobenzo[c][1,2]oxaborole-6-carbonyl)-L-valinate], the IC50 in assay [1] is not above 20 nM; in assay [2] it was less than 0.5 nM.

For the molecule `Cc1c(C(=O)N[C@H](C(=O)OCc2ccc(C#N)cc2)C(C)C)ccc2c1B(O)OC2` [Example 6-044, 4-Cyanobenzyl (1-hydroxy-7-methyl-1,3-dihydrobenzo[c][1,2]oxaborole-6-carbonyl)-L-valinate], the 50% inhibitory concentration (IC50) in assay [1] is not above 20 nM; in assay [2], less than 0.5 nM.

In the case of `Cc1c(C(=O)N[C@H](C(=O)OC2CCCC2)C(C)C)ccc2c1B(O)OC2` [Example 6-132, Cyclopentyl (1-hydroxy-7-methyl-1,3-dihydrobenzo[c][1,2]oxaborole-6-carbonyl)-L-valinate], the IC50 in assay [1] is not above 20 nM; in assay [2], less than 0.5 nM.

For the molecule `COC(=O)[C@@H](NC(=O)c1ccc2c(c1C)B(O)OC2)C(C)C` [Example 6-069, Methyl (1-hydroxy-7-methyl-1,3-dihydrobenzo[c][1,2]oxaborole-6-carbonyl)-L-valinate], the IC50 is 21 to 999 nM in assay [1] and 0.51 to 9.99 nM in assay [2].

For the molecule `CC(C)[C@H](NC(=O)c1ccc2c(c1)B(O)OC2(C)C)C(=O)OCc1ccc(F)cc1` [Example 6-033, 4-Fluorobenzyl (1-hydroxy-3,3-dimethyl-1,3-dihydrobenzo[c][1,2]oxaborole-6-carbonyl)-L-valinate], the IC50 in assay [1] is not below 1000 nM; in assay [2] it was 10 to 5000 nM.

As to `Cc1c(C(=O)N[C@H](C(=O)OCc2ccc(CN3CCN(C)CC3)cc2)C(C)C)ccc2c1B(O)OC2` [Example 6-111, 4-((4-Methylpiperazin-1-yl)methyl)benzyl (1-hydroxy-7-methyl-1,3-dihydrobenzo[c][1,2]oxaborole-6-carbonyl)-L-valinate], the IC50 was not above 20 nM in assay [1] and 0.51 to 9.99 nM in assay [2].
